Normalised inhibition (eCFP-eYFP dual reporter) data for 35 substances are collected here from the OligoGym collection.

Oligonucleotides are written 5' to 3', each unit as a sugar letter and its base; * is a phosphorothioate linkage, no mark a phosphodiester; rarer units and linkages stand in square brackets, end groups in braces. Plain capitals give the bases only. d = 2'-deoxy (DNA); r = 2'-OH (RNA)

This data set in a line: reporter assay of Huesken 2005. Particulars: siRNA. On the technique in general: In a reporter assay the amount or activity of a reporter protein is the signal.
Also: test concentration or dose not given here.

For “sense rCrGrGrGrGrCrUrGrArGrArArArGrUrUrCrGrUdTdT / antisense rArCrGrArArCrUrUrUrCrUrCrArGrCrCrCrCrGdGdG”, the normalised inhibition (eCFP-eYFP dual reporter) worked out at 95.2%. Then “sense rCrUrUrCrUrGrArGrCrArArUrArUrCrCrCrCrAdTdT / antisense rUrGrGrGrGrArUrArUrUrGrCrUrCrArGrArArGdTdT”, with 93%; and “sense rUrGrArArGrCrUrGrGrUrCrUrGrUrGrGrCrArGdTdT / antisense rCrUrGrCrCrArCrArGrArCrCrArGrCrUrUrCrAdGdA”, with 44.4%; and “sense rGrGrCrArGrArCrUrArCrArGrUrUrUrCrUrUrUdTdT / antisense rArArArGrArArArCrUrGrUrArGrUrCrUrGrCrCdAdG”, with 86%. In the case of “sense rArCrArCrCrArGrArGrCrCrUrGrCrCrCrCrArCdTdT / antisense rGrUrGrGrGrGrCrArGrGrCrUrCrUrGrGrUrGrUdGdA”, the normalised inhibition (eCFP-eYFP dual reporter) turned out to be 72.8%. As for “sense rUrGrArGrArCrUrUrCrCrArUrCrUrCrUrArGrCdTdT / antisense rGrCrUrArGrArGrArUrGrGrArArGrUrCrUrCrAdGdA”, the normalised inhibition (eCFP-eYFP dual reporter) is 32.9%. For “sense rArGrGrUrCrArCrCrArGrArGrUrGrGrArArArCdTdT / antisense rGrUrUrUrCrCrArCrUrCrUrGrGrUrGrArCrCrUdTdT”, the normalised inhibition (eCFP-eYFP dual reporter) is 94.3%. For “sense rArArArCrGrCrCrUrArCrGrGrGrArGrUrCrArAdTdT / antisense rUrUrGrArCrUrCrCrCrGrUrArGrGrCrGrUrUrUdGdC”, the normalised inhibition (eCFP-eYFP dual reporter) worked out at 93.6%. As to “sense rUrCrCrCrCrArUrArGrGrCrUrUrUrGrGrArGrCdTdT / antisense rGrCrUrCrCrArArArGrCrCrUrArUrGrGrGrGrAdTdA”, the normalised inhibition (eCFP-eYFP dual reporter) came out at 35.8%. In the case of “sense rUrArCrUrCrUrUrGrCrUrCrUrCrUrGrGrArGrUdTdT / antisense rArCrUrCrCrArGrArGrArGrCrArArGrArGrUrAdGdA”, the normalised inhibition (eCFP-eYFP dual reporter) is 57.9%. Turning to “sense rGrCrCrUrArCrGrGrGrArGrUrCrArArArGrGrUdTdT / antisense rArCrCrUrUrUrGrArCrUrCrCrCrGrUrArGrGrCdGdT”, the normalised inhibition (eCFP-eYFP dual reporter) turned out to be 91.5%. “sense rUrArGrGrCrUrUrGrArGrGrGrArGrArGrUrUrGdTdT / antisense rCrArArCrUrCrUrCrCrCrUrCrArArGrCrCrUrAdAdA”: the normalised inhibition (eCFP-eYFP dual reporter) was 76.7%. Consider “sense rGrGrCrUrUrUrGrGrArGrCrCrCrUrUrCrUrGrCdTdT / antisense rGrCrArGrArArGrGrGrCrUrCrCrArArArGrCrCdTdA”, for which the normalised inhibition (eCFP-eYFP dual reporter) stood at 73.7%. As to “sense rArUrUrGrUrUrCrCrUrGrUrGrArArCrUrGrUrGdTdT / antisense rCrArCrArGrUrUrCrArCrArGrGrArArCrArArUdGdA”, the normalised inhibition (eCFP-eYFP dual reporter) was determined as 76.9%. Take “sense rCrCrArGrArGrUrGrGrArArArCrUrCrArCrArCdTdT / antisense rGrUrGrUrGrArGrUrUrUrCrCrArCrUrCrUrGrGdTdG”: the normalised inhibition (eCFP-eYFP dual reporter) turned out to be 95.3%. On to “sense rCrCrArCrArUrGrGrUrGrUrGrGrArArUrCrUrGdTdT / antisense rCrArGrArUrUrCrCrArCrArCrCrArUrGrUrGrGdCdA”, for which the normalised inhibition (eCFP-eYFP dual reporter) was 40.2%. As for “sense rUrGrCrCrUrCrCrCrUrUrGrArGrGrCrGrUrCrUdTdT / antisense rArGrArCrGrCrCrUrCrArArGrGrGrArGrGrCrAdAdT”, the normalised inhibition (eCFP-eYFP dual reporter) amounted to 34.1%. Take “sense rArCrUrCrCrUrUrCrCrUrUrCrUrCrUrGrArArGdTdT / antisense rCrUrUrCrArGrArGrArArGrGrArArGrGrArGrUdCdC”: the normalised inhibition (eCFP-eYFP dual reporter) turned out to be 50.7%. Regarding “sense rUrGrGrCrUrCrUrGrUrCrUrCrUrCrUrGrCrCrAdTdT / antisense rUrGrGrCrArGrArGrArGrArCrArGrArGrCrCrAdCdC”, the normalised inhibition (eCFP-eYFP dual reporter) turned out to be 76.5%. Then “sense rArArUrCrUrGrGrCrArGrArCrUrArCrArGrUrUdTdT / antisense rArArCrUrGrUrArGrUrCrUrGrCrCrArGrArUrUdCdC”, with 81.7%. Turning to “sense rUrGrUrGrUrGrCrUrUrCrCrUrCrUrCrCrCrArUdTdT / antisense rArUrGrGrGrArGrArGrGrArArGrCrArCrArCrAdGdT”, the normalised inhibition (eCFP-eYFP dual reporter) came out at 104%. For “sense rGrGrUrGrGrCrUrCrUrGrUrCrUrCrUrCrUrGrCdTdT / antisense rGrCrArGrArGrArGrArCrArGrArGrCrCrArCrCdGdG” the value was 71.5%; for “sense rCrArGrGrGrUrArUrGrCrArCrArCrCrCrGrUrGdTdT / antisense rCrArCrGrGrGrUrGrUrGrCrArUrArCrCrCrUrGdTdT”, 70.6%; for “sense rArArGrArArArCrUrUrGrCrUrCrCrArGrArUrUdTdT / antisense rArArUrCrUrGrGrArGrCrArArGrUrUrUrCrUrUdCdT”, 79%.

Take “sense rCrArCrCrArGrArGrCrCrUrGrCrCrCrCrArCrCdTdT / antisense rGrGrUrGrGrGrGrCrArGrGrCrUrCrUrGrGrUrGdTdG”: the normalised inhibition (eCFP-eYFP dual reporter) stood at 90.4%.

As for “sense rCrUrUrGrArGrGrGrArGrArGrUrUrGrUrArCrCdTdT / antisense rGrGrUrArCrArArCrUrCrUrCrCrCrUrCrArArGdCdC”, the normalised inhibition (eCFP-eYFP dual reporter) was 63.4%. Turning to “sense rGrCrArArCrArGrGrGrUrArUrGrCrArCrArCrCdTdT / antisense rGrGrUrGrUrGrCrArUrArCrCrCrUrGrUrUrGrCdTdC”, the normalised inhibition (eCFP-eYFP dual reporter) came to 72.5%. “sense rUrUrUrArGrGrGrUrGrCrCrCrArCrUrUrArGrGdTdT / antisense rCrCrUrArArGrUrGrGrGrCrArCrCrCrUrArArAdAdG”: the normalised inhibition (eCFP-eYFP dual reporter) came to 48.8%. Take “sense rArArUrGrArGrCrUrCrCrUrUrArCrUrUrArArCdTdT / antisense rGrUrUrArArGrUrArArGrGrArGrCrUrCrArUrUdCdC”: the normalised inhibition (eCFP-eYFP dual reporter) worked out at 70.8%.

Consider “sense rArGrUrGrArUrCrCrCrGrGrGrGrCrUrGrArGrAdTdT / antisense rUrCrUrCrArGrCrCrCrCrGrGrGrArUrCrArCrUdGdG”, for which the normalised inhibition (eCFP-eYFP dual reporter) came to 94.9%.

“sense rUrUrGrCrCrUrCrCrCrUrUrGrArGrGrCrGrUrCdTdT / antisense rGrArCrGrCrCrUrCrArArGrGrGrArGrGrCrArAdTdC”: the normalised inhibition (eCFP-eYFP dual reporter) was determined as 37.3%. Consider “sense rGrUrCrGrUrUrCrGrUrGrGrUrCrGrUrUrUrCrAdTdT / antisense rUrGrArArArCrGrArCrCrArCrGrArArCrGrArCdCdA”, for which the normalised inhibition (eCFP-eYFP dual reporter) stood at 39.3%. With “sense rArGrCrGrGrGrArGrArGrArGrCrArArCrArGrGdTdT / antisense rCrCrUrGrUrUrGrCrUrCrUrCrUrCrCrCrGrCrUdGdC”, the normalised inhibition (eCFP-eYFP dual reporter) came out at 43.5%. Consider “sense rGrGrCrArGrGrArGrArUrArGrCrCrCrArGrGrGdTdT / antisense rCrCrCrUrGrGrGrCrUrArUrCrUrCrCrUrGrCrCdAdC”, for which the normalised inhibition (eCFP-eYFP dual reporter) worked out at 67.7%. In the case of “sense rGrUrCrCrCrUrGrArGrGrArGrCrCrCrUrUrArGdTdT / antisense rCrUrArArGrGrGrCrUrCrCrUrCrArGrGrGrArCdGdG”, the normalised inhibition (eCFP-eYFP dual reporter) is 85.8%.
